Reference: US20020127208A1, “Method of transplantation using chemotherapy-treated allogeneic cells that enhance immune responses without graft versus host disease” (priority 2000, published 2002)

Tests used:
MCMV [1] = test: Adoptive immunotherapy against MCMV lethality, 10x10^6 lymphocytes, B/6 to F1 BMT; format: in vivo, mouse; details: day +120 post-BMT, MCMV infected; for % survival, immune splenocytes / Survivors/Total, immune splenocytes: 10×10^6 MCMV-immune lymphocytes; for % survival, naive splenocytes / Survivors/Total, naive splenocytes: 10×10^6 naive lymphocytes
Method: Spleens were removed from either untreated PepBoy mice (naive donors), or those that had been inoculated with 10^5-10^6 PFU MCMV 2-4 months earlier (immune donors).
To generate irradiated splenocytes for adoptive immunotherapy, cells were harvested after 24 hour culture and exposed to a single fraction of radiation from a ^137Cs source for a total of 7.5 Gy. S-59 psoralen (Cerus Corporation, Concord, Calif.) was added to some splenocytes cultures at the end of the 24 hour culture period at a final concentration of 2 nM. The cells in a T75 tissue culture flask were then placed on a UVA (320-400 nm) illumination device with a nominal fluorescence of 7 mW (Cole Parmer, Vernon Hill, Ill.) and illuminated for 5 mins to achieve 3.0 J/cm^2 equivalent UVA dose. Control (untreated) splenocytes were harvested after 24 hour culture without other interventions. For all four groups, lymphocytes were washed at the end of the culture/treatment period and the appropriate dosage of viable cells was used for adoptive immunotherapy.
One day prior to transplant, recipient F1 mice were conditioned using a ^137Cs source at a dose rate of 1.24 Gy/min. Two doses of 5.5 Gy were administered, 3 hours apart, for a total lethal dose of 11 Gy. Irradiated mice were given free access to drinking water containing oral antibiotics (1.1 mg/ml neomycin sulfate and 1000 U/ml polymyxin sulfate; Sigma, St. Louis, Mo.) starting 3 days prior to irradiation and continuing through the end of the experimental period. 5×10^6 T-cell depleted (TCD) BM cells in a total volume of 0.2 ml HBSS/FBS were injected into the tail vein of F1 mice on the day following irradiation. In adoptive immunotherapy experiments, the appropriate number of donor splenocytes were mixed with TCD BM cells and injected simultaneously in 0.2 ml total volume. Two hours after BMT, mice were injected intraperitoneally with appropriate MCMV inocula diluted in DMEM/CS. Control (uninfected) mice received DMEM/CS alone. Mice were evaluated daily for morbidity and mortality. The development of clinical GvHD was prospectively monitored by weighing mice twice weekly, as well as observing for alopecia and/or ruffled fur, diarrhea, and decreased activity with a “hunched over” appearance. Moribund mice were euthanized based on Emory IACUC end-points and protocols.
Lymphocytes were prepared from the spleens of naïve or MCMV-immune B/6 donors and 10×10^6 or 30×10^6 were infused IV at the time of B/6→F1 allogeneic BMT. […] Some groups of mice were subsequently infected with 2×10^4 PFU MCMV at two hours after BMT, a viral inoculum expected to produce 90-100% lethality (FIG. 8B).
Table 2: Effect of adoptive immunotherapy on the survival of B/6→F1 BMT mice following MCMV infection. At the time of BMT, mice were infused with 10×10^6 splenic lymphocytes from B/6 mice that were either previously-infected with MCMV (“Immune splenocytes”) or uninfected (“Naive splenocytes”). […] Some mice received lymphocytes that were untreated. The table lists the number of surviving mice (at day +120 post-BMT) and the total number of mice in each group, as well as the percentage survival.

MCMV [2] = test: Adoptive immunotherapy against MCMV lethality, 30x10^6 MCMV-immune lymphocytes, B/6 to F1 BMT; format: in vivo, mouse; details: 30×10^6 immune lymphocytes; 2×10^4 PFU MCMV; P<0.001
Excerpt: Spleens were removed from either untreated PepBoy mice (naive donors), or those that had been inoculated with 10^5-10^6 PFU MCMV 2-4 months earlier (immune donors). Polyclonal splenocytes were harvested by perfusing spleens with sterile HBSS/FBS. […]

B/6 to F1 BMT mice = test: Lethality (GvHD) of 30x10^6 transferred lymphocytes without MCMV infection; format: in vivo, mouse; details: 30×10^6 lymphocytes; n=20
Excerpt: FIGS. 9A-C. Adoptive immunotherapy to prevent MCMV lethality. Conditioned F1 recipients were infused with 5×10^6 TCD BM cells from B/6 donors. Some groups also received simultaneous infusions of 30×10^6 unselected splenocytes from B/6 donors previously infected with MCMV (immune). […] Following transplantation, mice were either infected with 2×10^4 PFU MCMV (A), or vehicle (B). Data from two separate experiments (n=20 mice per group) were combined for display and analysis. […] Survival was not improved when mice were infused with cultured (untreated) splenocytes (P>0.05). […]
To generate irradiated splenocytes for adoptive immunotherapy, cells were harvested after 24 hour culture and exposed to a single fraction of radiation from a ^137Cs source for a total of 7.5 Gy. […] The cells in a T75 tissue culture flask were then placed on a UVA (320-400 nm) illumination device with a nominal fluorescence of 7 mW (Cole Parmer, Vernon Hill, Ill.) and illuminated for 5 mins to achieve 3.0 J/cm^2 equivalent UVA dose. […]
One day prior to transplant, recipient F1 mice were conditioned using a ^137Cs source at a dose rate of 1.24 Gy/min. […] Mice were evaluated daily for morbidity and mortality. The development of clinical GvHD was prospectively monitored by weighing mice twice weekly, as well as observing for alopecia and/or ruffled fur, diarrhea, and decreased activity with a “hunched over” appearance. […]

[3] = tested on: liver of B/6 to F1 BMT mice; test: Histologic assessment of hepatic inflammation (GvHD) and MCMV inclusions; format: in vivo, mouse; details: day +14
Excerpt: FIGS. 11A-H. S-59/UVA-treated lymphocytes decrease hepatic MCMV infection without producing GvHD. […] Some mice were infected with 5×10^4 PFU MCMV (B, D, F, G), while others were uninfected (A, C, E). At day +14, livers were harvested from surviving mice and prepared for histologic examination. […] Numerous typical cytomegalic inclusions can be appreciated in a higher power photomicrograph (G). […] In contrast, mice infused with S-59/UVA lymphocytes had normal-appearing hepatic architecture with minimal detectable inflammation whether they were infected (F) or not (E).
Mice were euthanized, and segments of liver were immersion-fixed in 10% formalin, embedded in paraffin, cut in 8 μm sections, and stained with hematoxylin and eosin. […] Typical eosinophilic intranuclear cytomegalic inclusion bodies were counted in 10 contiguous high-power fields (hpf) on each section as a marker of viral replication. […] The results were decoded, tabulated, and analyzed by another co-author (J.R.).
A sample of liver was also prepared for microscopic quantitation of MCMV-infected cells and hepatic inflammation. A trained anatomic pathologist (D.J.), blinded to sample identity, scored the sections for MCMV inclusions and hepatic portal inflammation. Representative photomicrographs are shown in FIGS. 11(A-G) and quantitative data analysis in FIG. 11H. […]

responder splenocytes = test: Proliferative response to allo-antigen (MLR) and mitogen, thymidine incorporation; format: cell-based, mouse; details: prior exposure to 20 μg/ml for 24 hours, vs control
Excerpt: A. Fludarabine attenuates the proliferative response of spleen cells to allogeneic stimulation (MLR) or mitogenic stimulation (con A). […] Strain combinations of DBA versus BL6 and BL6 versus DBA were used in the MLR experiments. CPM is expressed as percent of non-treated control.
4×10^6 cells/ml responder cells (either B10.BR, DBA/2, or Balb/c) were co-cultured with 2×10^6 irradiated (25 Gy) stimulator cells/ml (C57.BL6) in complete media with 10 U/ml IL-2 (Chiron Corporation, Emeryville, Calif.) and 10 ng/ml IL-7 (PeproTech Inc., Rocky Hill, N.J.) in 96 well plates. Proliferation was monitored by measuring DNA synthesis/thymidine incorporation. Cultures were pulsed with 1 uCi/well of tritiated thymidine (NEN Life Sciences, Boston, Mass.) on day 6, harvested onto filtermats using a Tomtec Harvester (Hamden, Conn.) on day 7, and read on MicroBeta TriLux counter (PerkinElmer, Inc., Gaithersburg, Md.).

[4] = tested on: lethally irradiated B10.BR (H2k) recipient mice; test: MHC mis-matched C57.BL6 to B10.BR transplant model: survival, GvHD (weight), donor engraftment; format: in vivo, mouse; details: splenocytes treated with 20 μg/ml vs control or other doses (0, 3, 10, 40 μg/ml)
Excerpt: Lethally irradiated (11 Gy) B10.BR (H2^k) recipient mice were transplanted with 1×10^6 BL6 (H2^b) TCD-BM cells (n=40, thin line). […] Survival and weight change data are derived from 2-6 individual experiments using 5 or 10 animals per group. Kaplan-Meier survival determinations are shown in A (ticks indicate time points at which individual experiments were terminated). Trend lines representing the mean weight change (percent body weight) for each group are shown in B. Trend lines were calculated using a moving average with a periodicity of 3.
1×10^6 TCD-BM cells and splenocytes from BL6 strains having different Thy1.1 or Thy1.2 isotypes were administered to lethally irradiated B10.BR mice. […] Donor splenocyte derived CD4+ (gray bars) and CD8+ (black bars) were quantified in the peripheral blood of recipient mice 2-4 months post-transplant.
B10.BR recipients were lethally irradiated and transplanted with 1×10^6 TCD-BM from CD45.1+ C57.BL6 donors. […] The fraction of blood T-cells derived from recipient, donor BM, and donor spleen were determined at day +27 post-transplant, using markers for T-cells (CD3), recipient-type cells (H2^k), donor-type cells (H2^b), and CD45.1/CD45.2 isoforms.
Recipient mice were irradiated 1 day prior to transplant using a ^137CS source at a rate of 1.24 Gy/min. […] The mice were monitored daily for survival; moribund animals were euthanized. […]

splenocytes = test: Splenocyte viability in 24 hour culture
Method: Splenocytes were harvested by perfusing spleens with sterile HBSS/FBS, and washed before culture. Splenocytes (10×10^6 cells/ml) were incubated in complete media (RPMI supplemented with 10% heat-inactivated FBS, 50 μM 2-mercaptoethanol, 100 Units/ml penicillin, 100 ug/ml streptomycin, 292 μg/ml L-glutamine, 1 mM sodium pyruvate, and non-essential amino acids added according to the manufacturer's specifications (Biowhittaker, Walkersville, Md.)). […] Overall viability was assessed by counting ethidium bromide/acridine orange stained cells under fluorescence microscopy. Survival of T-cell populations was determined by flow cytometric analyses using fluorochrome conjugated antibodies against mouse CD3, CD4 and CD8. Propidium iodide stain was used to exclude dead cells from the analysis.
The data represent the mean ±SEM for 4 individual experiments.

alloreactive T-cells = test: Limiting dilution assay of alloreactive cell frequency; details: 20 μg/ml, B10.BR responders stimulated with C57.BL6
Method: Limiting dilution assay of B10.BR responder cells stimulated with C57.BL6.
The frequency of alloreactive cells was measured using a limiting dilution assay . Briefly, 20,000 responder cells were three-fold serially diluted in 96-well plates with 12 replicate wells per dilution. 10,000 stimulator cells were added to each well in a combined total volume of 150 μl complete media. After 7 days in co-culture, the proliferation of responder cells was measured using tritiated thymidine incorporation. The number of responder cells was plotted versus the natural logarithm of the percentage of negative wells (i.e., wells with cpm readings lesser than media control). The reciprocal of the slope of the regression line yielded the frequency of alloreactive T-cells.

[5] = 20 μg/ml fludarabine, 24 hour culture, % compared to starting cell no., mean ± SEM, 4 experiments

Compound | % survival, immune splenocytes (MCMV [1]) | Survivors/Total, immune splenocytes (MCMV [1]) | % survival, naive splenocytes (MCMV [1]) | Survivors/Total, naive splenocytes (MCMV [1]) | Survival compared to mice that did not receive adoptive immunotherapy (MCMV [2]) | Mice that died without MCMV infection (B/6 to F1 BMT mice) | Portal inflammation score (scale 1-5) ([3]; MCMV infected) | Portal inflammation score (scale 1-5) ([3]; not MCMV infected) | Decrease of proliferative response to concanavalin A (responder splenocytes; 10 μg/ml con A) | Reduction of thymidine incorporation after stimulation with allogeneic antigen (MLR) (responder splenocytes; 7-day MLR) | 40 day survival rate, pilot allogeneic transplant experiments [4] | Splenocyte viability, CD4+ T-cells (splenocytes; [5]) | Splenocyte viability, CD8+ T-cells (splenocytes; [5]) | Splenocyte viability, all leukocytes (splenocytes; [5]) | Splenocyte viability, non T-cells (splenocytes; [5]) | Splenocyte viability, all leukocytes (splenocytes; 20 μg/ml fludarabine, 24 hour culture, % compared to starting cell no., mean ± SEM, 4 experiments, listed as fludarabine) | T-cell viability after fludarabine culture (splenocytes; 20 μg/ml, 24 hr) | Viability of predominantly CD8+ cultured CTL's (splenocytes; activated, allo-stimulated CTL's, in contrast to naive spleen cells) | Decrease in the frequency of allo-reactive T-cells (alloreactive T-cells) | Frequency of alloreactive cells in fludarabine treated culture (alloreactive T-cells; untreated culture 1/205)
Cc1oc2c(C)c3oc(=O)cc(C)c3cc2c1COCCN [S-59] | 90% | 9/10 | 30% | 3/10 | significantly improved survival | none | 3.0 | 2.3 | – | – | – | – | – | – | – | – | – | – | – | –
9-beta-D-arabinosyl-2-fluoroadenine [Fludarabine] | 71% | 24/34 | 23% | 8/35 | significantly improved survival | – | – | – | 37% | 62% | most favorable | 69.0 ± 9.9% | 62.1 ± 12.9% | 41.6 ± 7.8% | 33.6 ± 6.4% | approximately 42% | 60-70% | not affected | 66% | 1/621
